Test [1] relates to KDM5A/B. Briefly: In vitro cell-based assay: immuno-blot quantification of tri-methyl H3K4 in ZR-75-1 breast cancer cells. The following applies: 72 hours, tri-methyl H3K4 level relative to GAPDH, percent of DMSO, read-out: Cellular IC50. The text has this:
An assay to measure the degree of cellular inhibition of KDM5A and 5B was developed. This quantitative immuno-blotting assay measures the amount tri-methylated histone H3 at amino acid Lysine number 4, a specific substrate […] of the direct enzymatic activity of the histone demethylases KDM5A and KDM5B from extracts of the ZR-75-1 breast cancer cell line.
This assay is a fluorometric immunoassay for the quantification of tri-methyl H3K4 extracted from cells treated with test compound and is used as a measure of the cellular inhibition of KDM5A/B.
ZR-75-1 (PTEN null, ER+) breast cancer cells numbering 50,000 (ATCC) were seeded into each well of a 96-well tissue culture treated plate and then exposed to an 11 point dilution of test compound with final concentration ranges of test compound ranging from 1250 μM to 10 nM. Cells were left in the presence of test compound for 72 hours. Extracts were prepared containing all of the cellular histone material using detergent based lysis and sonication methods. These lysates were subsequently normalized for total protein content using a colorimetric bicinchonic acid assay (MicroBCA Pierce/Thermo Scientific). Normalized cell extracts were then subjected to typical immuno-blotting procedures using NuPage reagents (Life Technologies). Electrophoretically separated histones were then transferred and immobilized using polyvinylidene difluoride membrane (Immobilon-FL Millipore). The amount of tri-methylated lysine 4 of histone H3 was detected using an antibody specific to the tri-methylated state (Cell Signaling Technologies) and quantified on an infrared imager using a densitometry software package (Odyssey CLx, Image Studio, Li-Cor). This background subtracted densitometry value was reported as a ration of the GAPDH amount for that sample and then calculated as a percent of the DMSO treated sample. The software package XL-fit (IDBS) was then used to calculate a relative IC50 value for the dilution series of a given test compound according to the equation: fit=(D+((Vmax*(x^n))/((x^n)+(Km^n)))).

Test [2] addresses T1, JMJD2C (Homo sapiens, UniProt Q9H3R0).
T1 construct: purchased BPS Bioscience 50105
T1 sequence (Q9H3R0 2-372): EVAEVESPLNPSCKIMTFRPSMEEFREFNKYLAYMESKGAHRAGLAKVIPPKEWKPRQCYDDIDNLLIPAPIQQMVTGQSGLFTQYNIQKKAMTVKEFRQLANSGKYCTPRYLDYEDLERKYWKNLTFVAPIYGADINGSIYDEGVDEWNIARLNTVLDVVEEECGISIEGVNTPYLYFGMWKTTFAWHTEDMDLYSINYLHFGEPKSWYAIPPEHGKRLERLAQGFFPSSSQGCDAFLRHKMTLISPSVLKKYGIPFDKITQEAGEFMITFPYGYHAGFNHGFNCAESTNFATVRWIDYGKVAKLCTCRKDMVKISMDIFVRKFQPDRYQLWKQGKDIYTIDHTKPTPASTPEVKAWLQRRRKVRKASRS
As to the kind of experiment: JMJD2C in vitro enzyme inhibition assay (TR-FRET). It counts as biochemical. An excerpt: This assay determines the ability of a test compound to inhibit Jarid1A, Jarid1B, and JMJD2C demethylase activity. Baculovirus expressed Jarid1A (GenBank Accession #NM_001042603, AA1-1090) was purchased from BPS Bioscience (Cat#50110). Baculovirus expressed Jarid1B (GenBank Accession #NM_006618, AA 2-751) was purchased from BPS Bioscience (Cat #50121) or custom made by MolecularThroughput. Baculovirus expressed JMJD2C (GenBank Accession #BC143571, AA 2-372) was purchased from BPS Bioscience (Cat#50105).
The ability of test compounds to inhibit the activity of JMJD2C was determined in 384-well plate format under the following reaction conditions: 0.3 nM JMJD2C, 300 nM H3K9me3-biotin labeled peptide (Anaspec cat #64360), 2 μM alpha-ketoglutaric acid in assay buffer of 50 mM HEPES, pH7.3, 0.005% Brij35, 0.5 mM TCEP, 0.2 mg/ml BSA, 50 μM sodium L-ascorbate, and 2 μM ammonium iron(II) sulfate. Reaction product was determined quantitatively by TR-FRET after the addition of detection reagent Phycolink Streptavidin-allophycocyanin (Prozyme) and Europium-anti-di-methylated histone H3 lysine 9 (H3K9me2) antibody (PerkinElmer) in the presence of 5 mM EDTA in LANCE detection buffer (PerkinElmer) at a final concentration of 50 nM and 1 nM, respectively.
The assay reaction was initiated by the following: 2 μl of the mixture of 900 nM H3K9me3-biotin labeled peptide and 6 μM alpha-ketoglutaric acid with 2 μl of 11-point serial diluted inhibitor in 3% DMSO were added to each well of the plate, followed by the addition of 2 μl of 0.9 nM JMJD2C to initiate the reaction. The reaction mixture was incubated at room temperature for 30 minutes, and terminated by the addition of 6 μl of 5 mM EDTA in LANCE detection buffer containing 100 nM Phycolink Streptavidin-allophycocyanin and 2 nM Europium-anti-H3K9me2 antibody. Plates were read by EnVisionMultilabel Reader in TR-FRET mode (excitation at 320 nm, emission at 615 nm and 665 nm) after 1 hour incubation at room temperature. A ratio was calculated (665/615) for each well and fitted to determine inhibition constant (IC50).
For orientation: In TR-FRET formats the signal depends on donor and acceptor labels being close together.

Bounds are passed on as bounds.

Broadly, the IC50 is the concentration needed to halve the response being measured.

For `Oc1nc(Oc2cccc(C(F)(F)F)c2)nc2cnccc12` [Example 52, 2-[3-(trifluoromethyl)phenoxy]pyrido[3,4-d]pyrimidin-4-ol], the IC50 was in the range of 1 to 10 µM in test [1] and 100 to 1000 nM in test [2].
Regarding `Oc1nc(Oc2ccc(Cl)cc2)nc2cnccc12` [Example 49, 2-(4-chlorophenoxy)pyrido[3,4-d]pyrimidin-4-ol], the figures for the IC50 in test [1] and in test [2] were greater than 10 µM and no more than 100 nM, respectively.
`Cn1cnc(-c2nccc3c(O)nc(OCc4ccc(F)cc4)nc23)c1` [Example 71, 2-[(4-fluorobenzyl)oxy]-8-(1-methyl-1H-imidazol-4-yl)pyrido[3,4-d]pyrimidin-4-ol]: the values for the IC50 in test [1] and in test [2] were 1 to 10 µM and 100 to 1000 nM, respectively.
As to `CCOc1nc(O)c2ccnc(-c3cn(C)cn3)c2n1` [Example 69, 2-ethoxy-8-(1-methyl-1H-imidazol-4-yl)pyrido[3,4-d]pyrimidin-4-ol], the figures for the IC50 in test [1] and in test [2] were greater than 10 µM and 100 to 1000 nM, respectively.
Take `COc1ccc(Oc2nc(O)c3ccncc3n2)cc1F` [Example 53, 2-(3-fluoro-4-methoxyphenoxy)pyrido[3,4-d]pyrimidin-4-ol]: the results for the IC50 in test [1] and in test [2] were 1 to 10 µM and 100 to 1000 nM, respectively.
Consider `Oc1nc(OCC2CC2)nc2cnccc12` [Example 5, 2-(cyclopropylmethoxy)-3H-pyrido[3,4-d]pyrimidin-4-one], for which the IC50 in test [1] is greater than 10 µM; in test [2], 100 to 1000 nM.
Turning to `CCCn1cc(Oc2nc(O)c3ccncc3n2)cn1` [Example 54, 2-(1-propylpyrazol-4-yl)oxypyrido[3,4-d]pyrimidin-4-ol], the IC50 was 1 to 10 µM in test [1] and 100 to 1000 nM in test [2].
Turning to `Oc1nc(Oc2cnn(Cc3ccc(F)cc3)c2)nc2cnccc12` [Example 86, 2-[1-(4-fluorobenzyl)pyrazol-4-yl]oxypyrido[3,4-d]pyrimidin-4-ol], the IC50 was 1 to 10 µM in test [1] and no more than 100 nM in test [2].
With `Oc1nc(Oc2cccc(F)c2)nc2cnccc12` [Example 40, 2-(3-fluorophenoxy)pyrido[3,4-d]pyrimidin-4-ol], the IC50 in test [1] was greater than 10 µM; in test [2], no more than 100 nM.
Regarding `Oc1nc(Oc2cccc(Cl)c2)nc2cnccc12` [Example 41, 2-(3-chlorophenoxy)pyrido[3,4-d]pyrimidin-4-ol], the IC50 in test [1] is greater than 10 µM; in test [2], 100 to 1000 nM.
On the same counts, the results for `Oc1nc(Oc2ccc(F)c(F)c2)nc2cnccc12` [Example 37, 2-(3,4-difluorophenoxy)pyrido[3,4-d]pyrimidin-4-ol] are greater than 10 µM and no more than 100 nM.
In the case of `Oc1nc(Oc2cnn(C3CCNCC3)c2)nc2cnccc12` [Example 89, 2-(1-piperidin-4-ylpyrazol-4-yl)oxypyrido[3,4-d]pyrimidin-4-ol], the IC50 is 1 to 10 µM in test [1] and no more than 100 nM in test [2].
On the same counts, the results for `CC(C)(C)OC(=O)N1CCC(n2cc(Oc3nc(O)c4ccncc4n3)cn2)CC1` [Example 88, tert-butyl 4-[4-(4-hydroxypyrido[3,4-d]pyrimidin-2-yl)oxypyrazol-1-yl]piperidine-1-carboxylate] are 1 to 10 µM and 100 to 1000 nM.
Take `Cn1cnc(-c2nccc3c(O)nc(OCCCC(F)(F)F)nc23)c1` [Example 74, 8-(1-methylimidazol-4-yl)-2-(4,4,4-trifluorobutoxy)pyrido[3,4-d]pyrimidin-4-ol]: the IC50 is 0.1 to 1 µM in test [1] and 100 to 1000 nM in test [2].
On the same counts, the results for `Cn1cnc(-c2nccc3c(O)nc(OCC(F)(F)F)nc23)c1` [Example 70, 8-(1-methyl-1H-imidazol-4-yl)-2-(2,2,2-trifluoroethoxy)pyrido[3,4-d]pyrimidin-4-ol] are 1 to 10 µM and 100 to 1000 nM.
Compound `CN(C)CCOc1nc(O)c2ccnc(-c3cn(C)cn3)c2n1` [Example 76, 2-[2-(dimethylamino)ethoxy]-8-(1-methylimidazol-4-yl)pyrido[3,4-d]pyrimidin-4-ol] showed an IC50 in test [2] of 100 to 1000 nM.
As for `CC(C)(C)OC(=O)Nc1cccc(Oc2nc(O)c3ccncc3n2)c1` [Example 36, tert-butyl N-[3-(4-hydroxypyrido[3,4-d]pyrimidin-2-yl)oxyphenyl]carbamate], in test [2], the IC50 lay within 100 to 1000 nM.
Take `Cc1nn(C)c2cc(Oc3nc(O)c4ccnc(-c5cn(C)cn5)c4n3)ccc12` [Example 85, 2-(1,3-dimethylindazol-6-yl)oxy-8-(1-methylimidazol-4-yl)pyrido[3,4-d]pyrimidin-4-ol]: the IC50 in test [2] is 100 to 1000 nM.
With `O=C(c1cc(F)cc(Oc2nc(O)c3ccncc3n2)c1)N1CCOCC1` [Example 60], in test [2], the IC50 lay within 100 to 1000 nM.
Take `Cn1cnc(-c2nccc3c(O)nc(OCC4CCOC4)nc23)c1` (stereo not drawn) [Example 103, 8-(1-methyl-1H-imidazol-4-yl)-2-(oxolan-3-ylmethoxy)pyrido[3,4-d]pyrimidin-4-ol]: the IC50 in test [2] is no more than 100 nM.
`Cn1cnc(-c2nccc3c(O)nc(OCCC4CC4)nc23)c1` [Example 78, 2-(2-cyclopropylethoxy)-8-(1-methylimidazol-4-yl)pyrido[3,4-d]pyrimidin-4-ol] showed an IC50 in test [2] of 100 to 1000 nM.
Still for that read-out and setting: as for `Cn1cnc(-c2nccc3c(O)nc(OCc4ccccc4)nc23)c1` [Example 101, 8-(1-methylimidazol-4-yl)-2-phenylmethoxypyrido[3,4-d]pyrimidin-4-ol], the figure is 100 to 1000 nM.
Compound `COc1c(F)cc(Oc2nc(O)c3ccncc3n2)cc1F` [Example 43, 2-(3,5-difluoro-4-methoxyphenoxy)pyrido[3,4-d]pyrimidin-4-ol] showed an IC50 in test [2] of 100 to 1000 nM.
In turn, `Cn1cnc(-c2nccc3c(O)nc(OCc4cccc(F)c4)nc23)c1` [Example 104, 2-[(3-fluorophenyl)methoxy]-8-(1-methyl-1H-imidazol-4-yl)pyrido[3,4-d]pyrimidin-4-ol] gave an IC50 in test [2] of no more than 100 nM.
For the compound `COCCn1ncc2ccc(Oc3nc(O)c4ccncc4n3)cc21` [Example 61, 2-{[1-(2-methoxyethyl)-1H-indazol-6-yl]oxy}pyrido[3,4-d]pyrimidin-4-ol], the IC50 in test [2] lay in the range of 100 to 1000 nM.
Still for that read-out and setting: as for `CC(C)n1cc(Oc2nc3cnccc3c(=O)[nH]2)cn1` [Example 63, 2-{[1-(propan-2-yl)-1H-pyrazol-4-yl]oxy}pyrido[3,4-d]pyrimidin-4-ol], the figure is 100 to 1000 nM; as for `Oc1nc(OC2CCCC2)nc2cnccc12` [Example 6, 2-cyclopentyloxy-3H-pyrido[3,4-d]pyrimidin-4-one], 100 to 1000 nM.
On the same count and under the same terms, as for `Cn1cnc(-c2nccc3c(O)nc(Oc4cnn(Cc5ccccc5)c4)nc23)c1` [Example 79, 2-(1-benzylpyrazol-4-yl)oxy-8-(1-methylimidazol-4-yl)pyrido[3,4-d]pyrimidin-4-ol], the figure is 100 to 1000 nM; as for `CC(c1ccccc1)n1cc(Oc2nc(O)c3ccncc3n2)cn1` (stereo not drawn) [Example 99], 100 to 1000 nM.
Compound `Oc1nc(Oc2ccccc2F)nc2cnccc12` [Example 46, 2-(2-fluorophenoxy)pyrido[3,4-d]pyrimidin-4-ol] registered an IC50 in test [2] of 100 to 1000 nM.

The record behind these values is US10526327B2, “Histone demethylase inhibitors” (CELGENE QUANTICEL RESEARCH, INC., priority 2013, dated 2020).
